The text below walks through data of patent US20240309018A1, “THIAZOLE-LACTAM-SPIROHETEROCYCLIC COMPOUNDS AND APPLICATIONS THEREOF” (D3 BIO (WUXI) CO., LTD, priority 2021, published 2024).

The structures appear in SMILES notation.

Series [1] is described as follows: In vivo PK study in beagle dogs. The arrangement: species or system beagle dog. The conditions noted are these: male beagle dogs. On the procedure: Male beagle dogs were used as assay animals. After a single administration, the plasma concentration of the compound was measured and the pharmacokinetic behavior was evaluated.
Five healthy adult male beagle dogs were selected, wherein 2 were in an intravenous injection group, and 3 were in an oral group. The vehicle in the intravenous injection group was 5% DMSO+95% (20% HP-β-CD). The compound to be assayed was mixed with an appropriate amount of vehicle for intravenous injection, and dissolved with stirring to prepare a clear solution of 0.4 mg/mL. The clear solution was filtered by a microporous membrane, and then ready for use. The vehicle in the oral group was 5% DMSO+95% (20% HP-β-CD). The compound to be assayed was mixed with the vehicle, and dissolved with stirring to prepare a solution of 0.3 mg/mL. […] were administered 1 mg/kg intravenously or 3 mg/kg orally, and then whole blood was collected for a certain period. Plasma was prepared. The drug concentration was analyzed by LC-MS/MS method, and the pharmacokinetic parameters were calculated by Phoenix WinNonlin software (Pharsight, USA).

The nature of series [2]: In vivo PK study in SD rats. The arrangement: species or system rat. The conditions noted are these: male SD rats. The protocol:
Male SD rats were used as assay animals. After a single administration, the plasma concentration of the compound was measured and the pharmacokinetic behavior was evaluated.
Six healthy adult male SD rats were selected, wherein 3 rats were in an intravenous injection group and 3 rats were in an oral group. The vehicle in the intravenous injection group was 5% DMSO+95% (20% HP-β-CD). The compound to be assayed was mixed with an appropriate amount of vehicle for intravenous injection, vortexed and sonicated to prepare a clear solution of 0.2 mg/mL. The clear solution was filtered by a microporous membrane, and then ready for use. The vehicle in the oral group was 5% DMSO+95% (20% HP-β-CD). The compound to be assayed was mixed with the vehicle, vortexed and sonicated to prepare a solution of 1 mg/mL. SD rats were administered 1 mg/kg intravenously or 10 mg/kg orally, and then whole blood was collected for a certain period. Plasma was prepared. The drug concentration was analyzed by LC-MS/MS method, and the pharmacokinetic parameters were calculated by Phoenix WinNonlin software (Pharsight, USA).

The target in series [3] is ERK1 kinase (Homo sapiens (Human), UniProt P27361). Put plainly: ERK1 in vitro kinase activity assay (33P-ATP, MBP substrate, filter-binding). In kind it is biochemical. On the procedure: The ability of the compound to inhibit ERK1 and ERK2 kinase activity was measured.
20 mM Hepes (pH 7.5), 10 mM MgCl2, 1 mM ethylenebis(oxyethylenenitrilo)tetraacetic acid (EGTA), 0.02% Brij35, 0.02 mg/mL bovine serum albumin (BSA), 0.1 mM Na3VO4, 2 mM dithiothreitol (DTT), 1% DMSO.
The assay compound was dissolved in 100% DMSO to prepare a stock solution of specific concentration. The compound was serially diluted in DMSO solution using Integra Viaflo Assist smart pipette.
• 1) The substrate MBP was prepared in freshly prepared reaction buffer; • 2) ERK1 (or ERK2) kinase was added to the above-mentioned MBP solution and mixed gently; • 3) The compound dissolved in 100% DMSO was added to the kinase reaction system using ultrasound technology (Echo550; nanoliter range), and the mixture was incubated at room temperature for 20 minutes; • 4) 33P-ATP (specific concentration of […]) was added to the reaction system, and the reaction was started at this time; • 5) The mixture was incubated at room temperature for 2 hours; • 6) The amount of radioactivity was detected by filter-binding method; • 7) ERK1 (or ERK2) kinase activity was calculated as the ratio of the remaining kinase activity in the assay sample to the kinase activity of the control group (treated by DMSO). Curve was fitted using Prism (GraphPad software) and IC50 values were calculated. • 5.

A short description of series [4]: In vivo PK study in mice. On the set-up: species or system mouse. The conditions noted are these: female BALB/c mice. From the text:
Female BALB/c mice were used as assay animals to determine the blood concentration of the compound and evaluate the pharmacokinetic behavior after a single administration.
Four healthy adult female BALB/c mice were selected, wherein 2 mice were in an intravenous injection group and 2 mice were in an oral group. The vehicle in the intravenous injection group was 5% DMSO+95% (20% HP-β-CD). The compound to be assayed was mixed with an appropriate amount of vehicle for intravenous injection, vortexed and sonicated to prepare a clear solution of 0.5 mg/mL. The clear solution was filtered by a microporous membrane, and then ready for use. The vehicle in the oral group was 5% DMSO+95% (20% HP-β-CD). The compound to be assayed was mixed with the vehicle, vortexed and sonicated to prepare a solution of 0.3 mg/mL. Mice were administered 1 mg/kg intravenously or 3 mg/kg orally, and then whole blood was collected for a certain period. Plasma was prepared. The drug concentration was analyzed by LC-MS/MS method, and the pharmacokinetic parameters were calculated by Phoenix WinNonlin software (Pharsight, USA).

Sequence of ERK1 kinase (P27361 whole entry): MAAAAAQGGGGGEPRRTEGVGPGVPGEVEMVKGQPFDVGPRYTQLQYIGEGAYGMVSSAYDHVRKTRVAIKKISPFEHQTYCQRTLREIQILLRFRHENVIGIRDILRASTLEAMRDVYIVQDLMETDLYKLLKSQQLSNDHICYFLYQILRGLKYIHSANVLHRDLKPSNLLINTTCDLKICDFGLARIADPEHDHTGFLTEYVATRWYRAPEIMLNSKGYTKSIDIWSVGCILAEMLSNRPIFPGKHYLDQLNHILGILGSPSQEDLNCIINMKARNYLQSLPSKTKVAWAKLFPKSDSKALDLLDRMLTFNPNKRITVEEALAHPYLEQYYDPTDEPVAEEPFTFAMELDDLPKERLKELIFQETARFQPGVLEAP

For the molecule `Cc1cccc(CN2C(=O)c3nc(-c4nc(Nc5ccnn5C)ncc4C)sc3C23COC3)n1` [WX001], the clearance in series [1] (dog, plasma, intravenous, 1 mg/kg intravenously or 3 mg/kg orally) is 10.1 mL/min/kg; in series [2] (rat, plasma, intravenous, 1 mg/kg intravenously or 10 mg/kg orally), 13.4 mL/min/kg; in series [4] (mouse, plasma, intravenous, 1 mg/kg intravenously or 3 mg/kg orally) it was 18.9 mL/min/kg. For the same molecule, the Vd was determined as 1.29 L/kg in series [1] (dog, plasma, intravenous, 1 mg/kg intravenously or 3 mg/kg orally, read-out: Vdss); 1.08 L/kg in series [2] (rat, plasma, intravenous, 1 mg/kg intravenously or 10 mg/kg orally, read-out: Vdss); 1.23 L/kg in series [4] (mouse, plasma, intravenous, 1 mg/kg intravenously or 3 mg/kg orally, read-out: Vdss). In addition, the half-life (in general, how long it takes for the measured level to halve) in series [1] (dog, plasma, 1 mg/kg intravenously or 3 mg/kg orally) was 3.48 h; in series [2] (rat, plasma, 1 mg/kg intravenously or 10 mg/kg orally) it was 3.77 h; in series [4] (mouse, plasma, 1 mg/kg intravenously or 3 mg/kg orally), 1.1 h. For the same molecule, the bioavailability in series [1] (dog, plasma, 1 mg/kg intravenously, 3 mg/kg orally, oral bioavailability) was 60%; in series [2] (rat, plasma, 1 mg/kg intravenously, 10 mg/kg orally, oral bioavailability), 49%; in series [4] (mouse, plasma, 1 mg/kg intravenously, 3 mg/kg orally, oral bioavailability), 154%. Also, the Cmax (usually the highest concentration seen after dosing) in series [1] (dog, single dose, 1 mg/kg intravenously or 3 mg/kg orally, plasma) amounted to 1770 nM; in series [2] (rat, single dose, 1 mg/kg intravenously or 10 mg/kg orally, plasma) it was 2500 nM; in series [4] (mouse, single dose, 1 mg/kg intravenously or 3 mg/kg orally, plasma) it was 4790 nM. Moreover, the “Oral DNAUC” value in series [1] (3 mg/kg orally, AUCPO/Dose) is reported as 2307.32 nM · h/mpk; in series [2] (10 mg/kg orally, AUCPO/Dose), 1445.79 nM · h/mpk; in series [4] (3 mg/kg orally, AUCPO/Dose) it was 2935 nM · h/mpk. The IC50 (as a rule, the concentration at which inhibition is half-maximal) in series [3] was 1.4 nM.
